According to the supplement of paper PMC10307832:

What was measured:
Assay in all cases: relative viability (nuclei count vs DMSO), 5 days (fraction); higher = more cells survive
CAL-12T = test system: CAL-12T
How it was run: (§1)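 Medians of duplicate plates are given as relative viability. That measure is the nuclei count in treated wells divided by the count in vehicle wells. Counts were taken on 4× images of lung cancer cell lines in 1536-well plates, 5 days after pin-tool dosing the day after seeding with one drug alone or a fixed anchor-drug dose plus five library-drug doses (not always all listed) in √10 steps.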

NCI-H322M = test system: NCI-H322M
How it was run: as §1

SW 900 = test system: SW 900
How it was run: as §1

NCI-H727 = test system: NCI-H727
How it was run: as §1

HCC-15 = test system: HCC-15
How it was run: as §1

NCI-H358 = test system: NCI-H358
How it was run: as §1

LK-2 = test system: LK-2
How it was run: as §1

EKVX = test system: EKVX
How it was run: as §1

ABC-1 = test system: ABC-1
How it was run: as §1

NCI-H522 = test system: NCI-H522
How it was run: as §1

NCI-H520 = test system: NCI-H520
How it was run: as §1

NCI-H1651 = test system: NCI-H1651
How it was run: as §1

COR-L 105 = test system: COR-L 105
How it was run: as §1

BEN = test system: BEN
How it was run: as §1

NCI-H460 = test system: NCI-H460
How it was run: as §1

201T = test system: 201T
How it was run: as §1

LU99A = test system: LU99A
How it was run: as §1

HCC-44 = test system: HCC-44
How it was run: as §1

PC-3 [JPC-3] = test system: PC-3 [JPC-3]
How it was run: as §1

NCI-H838 = test system: NCI-H838
How it was run: as §1

EMC-BAC-2 = test system: EMC-BAC-2
How it was run: as §1

NCI-H2023 = test system: NCI-H2023
How it was run: as §1

Cc1cn(-c2cc(NC(=O)c3ccc(C)c(Nc4nccc(-c5cccnc5)n4)c3)cc(C(F)(F)F)c2)cn1 [Nilotinib] + CC(=O)c1c(C)c2cnc(Nc3ccc(N4CCNCC4)cn3)nc2n(C2CCCC2)c1=O [Palbociclib] (partner 0.5 µM)
relative viability (CAL-12T; first compound 0.001 µM): 0.593
relative viability (CAL-12T; first compound 0.003162 µM): 0.438
relative viability (CAL-12T; first compound 0.01 µM): 0.473
relative viability (CAL-12T; first compound 0.03162 µM): 0.357
relative viability (CAL-12T; first compound 0.1 µM): 0.299
relative viability (NCI-H322M; first compound 0.001 µM): 0.512
relative viability (NCI-H322M; first compound 0.003162 µM): 0.461
relative viability (NCI-H322M; first compound 0.01 µM): 0.534
relative viability (NCI-H322M; first compound 0.03162 µM): 0.527
relative viability (NCI-H322M; first compound 0.1 µM): 0.602
relative viability (SW 900; first compound 0.003162 µM): 0.47
relative viability (SW 900; first compound 0.01 µM): 0.524
relative viability (SW 900; first compound 0.03162 µM): 0.455
relative viability (SW 900; first compound 0.1 µM): 0.476
relative viability (NCI-H727; first compound 0.001 µM): 0.667
relative viability (NCI-H727; first compound 0.003162 µM): 0.69
relative viability (NCI-H727; first compound 0.01 µM): 0.71
relative viability (NCI-H727; first compound 0.03162 µM): 0.593
relative viability (NCI-H727; first compound 0.1 µM): 0.633
relative viability (HCC-15; first compound 0.001 µM): 0.688
relative viability (HCC-15; first compound 0.003162 µM): 0.882
relative viability (HCC-15; first compound 0.01 µM): 0.87
relative viability (HCC-15; first compound 0.03162 µM): 0.578
relative viability (HCC-15; first compound 0.1 µM): 0.476
relative viability (NCI-H358; first compound 0.001 µM): 0.131
relative viability (NCI-H358; first compound 0.003162 µM): 0.131
relative viability (NCI-H358; first compound 0.01 µM): 0.148
relative viability (NCI-H358; first compound 0.03162 µM): 0.124
relative viability (NCI-H358; first compound 0.1 µM): 0.127
relative viability (LK-2; first compound 0.001 µM): 0.751
relative viability (LK-2; first compound 0.003162 µM): 0.475
relative viability (LK-2; first compound 0.01 µM): 0.788
relative viability (LK-2; first compound 0.03162 µM): 0.698
relative viability (LK-2; first compound 0.1 µM): 0.992
relative viability (EKVX; first compound 0.001 µM): 0.372
relative viability (EKVX; first compound 0.003162 µM): 0.492
relative viability (EKVX; first compound 0.01 µM): 0.479
relative viability (EKVX; first compound 0.03162 µM): 0.379
relative viability (EKVX; first compound 0.1 µM): 0.62
relative viability (ABC-1; first compound 0.001 µM): 0.634
relative viability (ABC-1; first compound 0.003162 µM): 0.697
relative viability (ABC-1; first compound 0.01 µM): 0.775
relative viability (ABC-1; first compound 0.03162 µM): 0.699
relative viability (ABC-1; first compound 0.1 µM): 0.466
relative viability (NCI-H522; first compound 0.03162 µM): 0.819
relative viability (NCI-H522; first compound 0.1 µM): 0.805
relative viability (NCI-H520; first compound 0.001 µM): 0.21
relative viability (NCI-H520; first compound 0.003162 µM): 0.219
relative viability (NCI-H520; first compound 0.01 µM): 0.241
relative viability (NCI-H520; first compound 0.03162 µM): 0.218
relative viability (NCI-H520; first compound 0.1 µM): 0.225
relative viability (NCI-H1651; first compound 0.001 µM): 0.555
relative viability (NCI-H1651; first compound 0.003162 µM): 0.601
relative viability (NCI-H1651; first compound 0.01 µM): 0.616
relative viability (NCI-H1651; first compound 0.03162 µM): 0.448
relative viability (NCI-H1651; first compound 0.1 µM): 0.562
relative viability (COR-L 105; first compound 0.001 µM): 0.396
relative viability (COR-L 105; first compound 0.003162 µM): 0.413
relative viability (COR-L 105; first compound 0.01 µM): 0.28
relative viability (COR-L 105; first compound 0.03162 µM): 0.399
relative viability (COR-L 105; first compound 0.1 µM): 0.391
relative viability (BEN; first compound 0.001 µM): 0.484
relative viability (BEN; first compound 0.003162 µM): 0.489
relative viability (BEN; first compound 0.01 µM): 0.465
relative viability (BEN; first compound 0.03162 µM): 0.548
relative viability (BEN; first compound 0.1 µM): 0.503
relative viability (NCI-H460; first compound 0.001 µM): 0.101
relative viability (NCI-H460; first compound 0.003162 µM): 0.0788
relative viability (NCI-H460; first compound 0.01 µM): 0.144
relative viability (NCI-H460; first compound 0.03162 µM): 0.148
relative viability (NCI-H460; first compound 0.1 µM): 0.134
relative viability (201T; first compound 0.001 µM): 0.326
relative viability (201T; first compound 0.003162 µM): 0.371
relative viability (201T; first compound 0.01 µM): 0.363
relative viability (201T; first compound 0.03162 µM): 0.363
relative viability (201T; first compound 0.1 µM): 0.351
relative viability (LU99A; first compound 0.001 µM): 0.408
relative viability (LU99A; first compound 0.003162 µM): 0.377
relative viability (LU99A; first compound 0.01 µM): 0.402
relative viability (LU99A; first compound 0.03162 µM): 0.44
relative viability (LU99A; first compound 0.1 µM): 0.314
relative viability (HCC-44; first compound 0.001 µM): 0.911
relative viability (HCC-44; first compound 0.003162 µM): 0.933
relative viability (HCC-44; first compound 0.01 µM): 0.927
relative viability (HCC-44; first compound 0.1 µM): 0.931
relative viability (PC-3 [JPC-3]; first compound 0.001 µM): 0.526
relative viability (PC-3 [JPC-3]; first compound 0.01 µM): 0.542
relative viability (PC-3 [JPC-3]; first compound 0.03162 µM): 0.566
relative viability (PC-3 [JPC-3]; first compound 0.1 µM): 0.518
relative viability (NCI-H838; first compound 0.001 µM): 0.215
relative viability (NCI-H838; first compound 0.003162 µM): 0.23
relative viability (NCI-H838; first compound 0.01 µM): 0.188
relative viability (NCI-H838; first compound 0.03162 µM): 0.198
relative viability (NCI-H838; first compound 0.1 µM): 0.201
relative viability (EMC-BAC-2; first compound 0.001 µM): 0.477
relative viability (EMC-BAC-2; first compound 0.003162 µM): 0.47
relative viability (EMC-BAC-2; first compound 0.01 µM): 0.481
relative viability (EMC-BAC-2; first compound 0.03162 µM): 0.487
relative viability (EMC-BAC-2; first compound 0.1 µM): 0.526
relative viability (NCI-H2023; first compound 0.001 µM): 0.395
relative viability (NCI-H2023; first compound 0.003162 µM): 0.401
relative viability (NCI-H2023; first compound 0.01 µM): 0.457
relative viability (NCI-H2023; first compound 0.03162 µM): 0.333
relative viability (NCI-H2023; first compound 0.1 µM): 0.419
